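GI50 is the concentration that inhibits growth by half. TGI: concentration producing complete growth inhibition.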
Legend:
Test in all cases: inhibition of tumour cell growth, NCI panel, 384-well format
HCC-2998 colon = test system: HCC-2998 colon
M14 melanoma = test system: M14 melanoma
K-562 leukemia = test system: K-562 leukemia
DU-145 prostate = test system: DU-145 prostate
NCI-H23 lung = test system: NCI-H23 lung
HT29 colon = test system: HT29 colon
UO-31 renal = test system: UO-31 renal
BT-549 breast = test system: BT-549 breast
NCI-H460 NSCLC = test system: NCI-H460 NSCLC
U251 glioblastoma = test system: U251 glioblastoma
SNB-19 CNS = test system: SNB-19 CNS
HL-60(TB) leukemia = test system: HL-60(TB) leukemia
KM12 colon = test system: KM12 colon

Row | Structure (SMILES) | GI50 (HCC-2998 colon) [µM] | TGI (HCC-2998 colon) [µM] | GI50 (M14 melanoma) [µM] | TGI (M14 melanoma) [µM] | GI50 (K-562 leukemia) [µM] | TGI (K-562 leukemia) [µM] | GI50 (DU-145 prostate) [µM] | TGI (DU-145 prostate) [µM] | GI50 (NCI-H23 lung) [µM] | TGI (NCI-H23 lung) [µM] | GI50 (HT29 colon) [µM] | TGI (HT29 colon) [µM] | GI50 (UO-31 renal) [µM] | TGI (UO-31 renal) [µM] | GI50 (BT-549 breast) [µM] | TGI (BT-549 breast) [µM] | GI50 (NCI-H460 NSCLC) [µM] | TGI (NCI-H460 NSCLC) [µM] | GI50 (U251 glioblastoma) [µM] | TGI (U251 glioblastoma) [µM] | further results
1 | COCCNc1cc(NC(=O)N2CCCc3cc(CN4CCN(C)CC4=O)c(C=O)nc32)ncc1C#N | > 100 | > 100 | > 100 | > 100 | 22.2 | > 100 | > 100 | > 100 | > 100 | > 100 | > 100 | > 100 | > 100 | > 100 | > 100 | > 100 | > 100 | > 100 | > 100 | > 100 | GI50 (SNB-19 CNS): > 100 µM; TGI (SNB-19 CNS): > 100 µM; GI50 (HL-60(TB) leukemia): 99.6 µM; TGI (HL-60(TB) leukemia): > 100 µM; GI50 (KM12 colon): > 100 µM; TGI (KM12 colon): > 100 µM
2 | Cc1[nH]c2ccccc2c1CCNCc1ccc(/C=C/C(=O)NO)cc1 | 0.0151 | 0.0337 | 0.0147 | 0.0822 | < 0.01 | 0.0148 | < 0.01 | 0.0179 | 0.0139 | 0.0411 | 0.0125 | 0.0285 | 0.0318 | 0.128 | 0.0434 | 0.123 | 0.0125 | 0.0511 | 0.0122 | 0.0268 | GI50 (SNB-19 CNS): 0.0234 µM; TGI (SNB-19 CNS): 0.0653 µM; GI50 (HL-60(TB) leukemia): < 0.01 µM; TGI (HL-60(TB) leukemia): < 0.01 µM; GI50 (KM12 colon): 0.0231 µM; TGI (KM12 colon): 0.0948 µM

— PubChem BioAssay (NCI)
